According to patent US6710048B2, “Pyrazine derivatives as modulators of tyrosine kinases” (Ortho-McNeil Pharmaceutical, Inc., priority 2000, dated 2004):
pIC50: −log10 of the molar value. Where two headings read alike, the source gives them in different places.

Tests used:
[1] = molecular target: T1, VEGF-R (vascular endothelial growth factor receptor-2) (Rattus norvegicus, UniProt O08775); assay: VEGF-R screening assay (33P FlashPlate kinase assay); format: biochemical
T1 construct: polyhistidine (6xHis) (N)
T1 sequence (O08775 786-1343): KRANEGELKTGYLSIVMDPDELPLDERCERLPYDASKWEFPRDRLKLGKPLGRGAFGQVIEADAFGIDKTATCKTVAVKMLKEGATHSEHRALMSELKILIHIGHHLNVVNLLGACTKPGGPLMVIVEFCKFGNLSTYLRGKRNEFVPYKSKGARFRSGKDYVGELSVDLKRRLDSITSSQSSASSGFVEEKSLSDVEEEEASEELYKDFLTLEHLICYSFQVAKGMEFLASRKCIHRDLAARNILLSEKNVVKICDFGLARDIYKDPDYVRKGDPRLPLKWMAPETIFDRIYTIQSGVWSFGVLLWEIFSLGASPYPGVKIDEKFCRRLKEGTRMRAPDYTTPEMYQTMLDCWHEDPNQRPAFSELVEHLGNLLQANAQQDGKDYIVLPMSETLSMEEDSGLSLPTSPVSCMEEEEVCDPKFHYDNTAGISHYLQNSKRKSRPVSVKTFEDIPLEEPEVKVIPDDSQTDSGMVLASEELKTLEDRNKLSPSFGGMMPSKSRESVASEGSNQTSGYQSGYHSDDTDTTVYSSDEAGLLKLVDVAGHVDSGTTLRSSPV
Protocol: A kinase reaction mixture was prepared containing 50 mM Tris-HCl pH=8, 10 mM MgCl2, 0.1 mM NAPO4, 1 mM DTT, 10 μM ATP, 0.025 μM biotinylated peptide substrate and 0.8 μCuries per well ^33P-γ-ATP [2000-3000 Ci/mmol]. 70 μl of the kinase reaction mixture was dispensed into the well of a streptavidin coated FlashPlate™ (Cat. # SMP103, NEN, Boston, Mass.). Then 1 μl of test compound stock in 100% DMSO was added to the wells resulting in a final concentration of 1% DMSO in the reaction with a 100 μl final reaction volume. Next, soluble rat tyrosine kinase containing an N-terminal 6×HIS tag was diluted in 50 mM Tris-HCl pH=8.0, 0.1% BSA at a concentration of 5 ng per microliter and 30 μl (150 ng enzyme per test well) was added to each well to initiate the reaction. The reaction was incubated for one hour at 30° C. At the end of the 1-hour incubation, the reaction was terminated by aspirating the reaction mixture from the plate and washing the wells twice with PBS containing 100 mM EDTA. The PLCI biotinylated peptide substrate becomes immobilized on the Flashplate™ and the incorporation of ^33P-γ-ATP was measured by reading the plate on a scintillation counter. Inhibition of the enzymatic activity of the VEGF-R was measured by observing a reduced amount of ^33P-γ-ATP incorporated into the immobilized peptide.
The term n.d. means not tested.
(§1) Assays to test compound inhibition of other kinases were preformed using methods that measure the amount of phosphorylation of a biotinylated peptide substrate. Biotinylated peptide substrates were selected from the literature as appropriate for the enzyme being evaluated. The general procedure used to assay for kinase activity is as follows: A kinase reaction mix was prepared in 50 mM Tris-HCl pH=8, 10 mM MgCl2, 0.1 mM NaVO4, 1 mM DTT, 5-10 μM ATP, 0.25-1 μM biotinylated peptide substrate, 0.2-0.8 μCuries per well ^33P-γ-ATP [2000-3000 Ci/mmol]. Assay conditions vary slightly for each protein kinase, for example, insulin receptor kinase requires 10 mM MnCl2 for activity and Calmodulin-dependent protein kinase requires calmodulin and 2 mM CaCl2. The reaction mixture was dispensed into the wells of a streptavidin coated Flashplate and 1 μl drug stock in 100% DMSO was added to a 100 μl reaction volume resulting in a final concentration of 1% DMSO in the reaction. Enzyme was diluted in 50 mM Tris-HCl pH=8.0, 0.1% BSA and added to each well. The reaction was incubated for one hour at 30° C. in the presence of compound. After one hour the reaction mix was aspirated from the plate and the plate was washed with PBS containing 100 mM EDTA. The plate was read on a scintillation counter to determine ^33P-γ-ATP incorporated into the immobilized peptide. Test compounds were assayed in duplicate at 8 concentrations [100 tM, 10 μM, 1 μM, 100 nM, 10 nM, 1 nM, 100 μM, 10 μM]. A maximum and minimum signal for the assay was determined on each plate. The IC50 was calculated from the dose response curve of the percent inhibition of the maximum signal in the assay according to the formula [max signal−background/test compound signal−background (100)=% inhibition] by graphing the percent inhibition against the log concentration of test compound. Known inhibitor compounds appropriate for the kinase being assayed were also included on each plate.
VEGF-R (vascular endothelial growth factor receptor-2) is a fusion protein containing a polyhistidine tag at the N-terminus followed by amino acids 786-1343 of the rat VEGF-R2 kinase domain (GenBank Accession #U93306). CDK1 (cyclin dependent kinase 1) is isolated from insect cells expressing both the human CDK1 catalytic subunit and its positive regulatory subunit cyclin B (New England Biolabs, Beverly, Mass., Cat. #6020). CDK4 (cyclin dependent kinase 4) contains amino acids 769 to 921 of the mouse […] protein found in the GST-retinoblastoma protein construct (Santa Cruz Biotechnology, Santa Cruz, Calif.; Cat. #SC-4112). […]

FGF-R2 = FGF-R2 (Homo sapiens, UniProt P21802); assay: FGF-R2 kinase selectivity assay; format: biochemical; conditions: Table 4 kinase selectivity; read-out: IC50, Assay 15 FGF-R2
FGF-R2, sequence (P21802 22-821, species assumed): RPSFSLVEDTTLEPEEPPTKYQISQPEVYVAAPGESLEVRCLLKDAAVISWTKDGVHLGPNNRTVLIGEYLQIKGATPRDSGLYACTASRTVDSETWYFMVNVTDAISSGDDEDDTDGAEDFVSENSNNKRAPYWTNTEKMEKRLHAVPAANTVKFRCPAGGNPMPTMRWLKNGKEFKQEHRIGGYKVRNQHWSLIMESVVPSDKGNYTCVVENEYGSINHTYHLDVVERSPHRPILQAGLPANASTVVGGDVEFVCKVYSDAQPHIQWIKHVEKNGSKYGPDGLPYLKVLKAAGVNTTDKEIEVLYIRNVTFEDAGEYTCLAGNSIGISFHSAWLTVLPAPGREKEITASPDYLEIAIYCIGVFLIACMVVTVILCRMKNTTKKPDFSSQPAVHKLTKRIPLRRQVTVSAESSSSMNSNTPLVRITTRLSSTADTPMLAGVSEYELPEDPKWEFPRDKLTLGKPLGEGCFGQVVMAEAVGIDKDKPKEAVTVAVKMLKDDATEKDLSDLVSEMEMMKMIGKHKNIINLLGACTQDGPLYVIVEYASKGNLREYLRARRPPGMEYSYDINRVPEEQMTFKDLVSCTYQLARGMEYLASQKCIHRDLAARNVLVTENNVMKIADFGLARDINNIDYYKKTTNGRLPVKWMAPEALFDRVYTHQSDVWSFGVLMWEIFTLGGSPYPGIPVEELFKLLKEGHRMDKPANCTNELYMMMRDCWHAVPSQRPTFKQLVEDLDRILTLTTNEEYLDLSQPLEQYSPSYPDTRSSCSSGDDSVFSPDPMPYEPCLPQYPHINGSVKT
Protocol: as §1

[2] = Table 4 kinase selectivity, read-out: IC50, Assay 1 VEGF-R
[3] = Tables 1-3, >10 or >100 = no 50% inhibition at highest dose tested, read-out: VEGF-R IC50

| Compound | pIC50 [1, 2] | pIC50 [1, 3] | pIC50 (FGF-R2) |
| --- | --- | --- | --- |
| Clc1cccc(Nc2cncc(-c3cncc(NCCCN4CCCCC4)c3)n2)c1 [Cmd 73] | 6.98 | 6.98 | 6.56 |
| OCCCNc1cncc(-c2cncc(Nc3cccc(Cl)c3)n2)c1 [Cmd 4] | 7.38 | 7.10 | 6.68 |
| Clc1cccc(Nc2cncc(-c3cncc(NCCCn4cncn4)c3)n2)c1 [Cmd 76] | 7.28 | 7.28 | 6.82 |
| Clc1cccc(Nc2cncc(-c3cncc(NCCCc4cccnc4)c3)n2)c1 [Cmd 72] | 7.05 | 7.05 | 6.53 |
| CN(C)CCCNc1cncc(-c2cncc(Nc3cccc(Cl)c3)n2)c1 [Cmd 35] | 7.03 | 7.05 | 5.51 |
| OCCCCNc1cncc(-c2cncc(Nc3cccc(Cl)c3)n2)c1 [Cmd 32] | 7.23 | 7.22 | 5.63 |
| CN(C)CCNc1cncc(-c2cncc(Nc3cccc(Cl)c3)n2)c1 [Cmd 33, N′-[5-[6-[(3-chlorophenyl)amino]pyrazinyl]-3-pyridinyl]-N^2,N^2-dimethyl-1,2-ethanediamine] | 7.15 | 7.15 | 5.85 |
| Clc1cccc(Nc2cncc(-c3cncc(NCCCc4ccncc4)c3)n2)c1 [Cmd 71] | 7.28 | 7.28 | 6.50 |
| O=C(NCCCO)c1cncc(-c2cncc(Nc3cccc(Cl)c3)n2)c1 [Cmd 39] | 5.60 | 5.60 | 5.74 |
| Clc1cccc(Nc2cncc(-c3cncc(NCCCn4cccn4)c3)n2)c1 [Cmd 75] | 7.10 | 7.10 | 6.49 |
